Patent publication US6083932A, “Pharmaceutical compositions derived from ginseng and methods of treatment using same” (CV Technologies Inc., priority 1998, dated 2000)

Experiments:
[1] = test system: choline uptake into synaptosomes, whole brain; settings: Benishin 1992 / previously demonstrated; cited from earlier work
[2] = test system: choline uptake into synaptosomes, whole brain; experiment: choline uptake into synaptosomes from rat whole brain; format: biochemical; settings: various doses; n=10
Description: We also studied the effects of HT1001 on choline uptake in synaptosomes.
We have examined choline uptake in synaptosome preparations from whole brain and hippocampus in the presence of Rb1, HT1001 and HC3.
The magnitude of these effects are consistent with the previous studies.

[3] = test system: 5-hydroxytryptamine uptake; experiment: 5-hydroxytryptamine uptake in striatal slices; format: biochemical; settings: 10^-5 M
Description: (§1) We have also investigated the effects of HT1001 on noradrenaline, dopamine and 5-hydroxytryptamine reuptake and monamine oxidase A and B activity in vitro. When compared to amphetamine, HT1001 has little effect on noradrenaline or dopamine uptake. For example, at 10^-4 M (assuming a molecular weight of 900 for HT1001) HT1001 inhibits noradrenaline uptake in hypothalamus slices 3.0% whereas amphetamine at 10^-5 M inhibits uptake by 83%. […] None of these effects are dramatic.

[4] = test system: dopamine uptake; experiment: dopamine uptake in striatal slices; format: biochemical; settings: 10^-5 M
Description: as §1

[5] = test system: noradrenaline uptake; experiment: noradrenaline uptake in hypothalamus slices; format: biochemical; settings: 10^-5 M
Description: as §1

[6] = target: T1, monoamine oxidase-B (Rattus norvegicus, UniProt P19643); experiment: in vitro monoamine oxidase-B inhibiting activity (radiochemical, β-phenylethylamine substrate); format: biochemical; settings: read-out: inhibition of monoamine oxidase B activity
T1 construct: homogenates of rat brain; from tissue; host or cells: rat brain homogenate
T1 sequence (P19643 1-520): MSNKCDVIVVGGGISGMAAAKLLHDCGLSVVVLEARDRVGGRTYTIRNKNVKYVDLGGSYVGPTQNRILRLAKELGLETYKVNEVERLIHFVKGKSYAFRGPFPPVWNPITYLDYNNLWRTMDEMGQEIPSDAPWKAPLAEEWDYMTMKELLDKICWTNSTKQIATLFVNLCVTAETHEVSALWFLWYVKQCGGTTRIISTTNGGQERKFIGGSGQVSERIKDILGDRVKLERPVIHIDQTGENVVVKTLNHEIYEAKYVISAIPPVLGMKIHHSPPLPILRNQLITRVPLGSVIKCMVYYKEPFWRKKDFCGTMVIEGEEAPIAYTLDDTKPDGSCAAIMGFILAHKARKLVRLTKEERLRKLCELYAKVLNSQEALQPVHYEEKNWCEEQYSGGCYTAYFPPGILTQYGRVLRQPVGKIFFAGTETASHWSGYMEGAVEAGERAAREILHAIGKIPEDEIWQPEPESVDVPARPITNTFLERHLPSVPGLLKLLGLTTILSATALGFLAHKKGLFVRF
Procedure: (§2) Example 1 is a study of the effects of several extracts of HT1001, PQ4, PQ5, PQ6 and pure ginsenosides, on monoamine oxidase A (MAO A) and monoamine oxidase B (MAO B) activity in vitro.
(§3) HT-1001, related extracts and pure ginsenosides were evaluated for in vitro monoamine oxidase-A and monoamine oxidase-B inhibiting activity using the radiochemical procedure of Lyles and Callingham, Biochem. Pharmacol. 31: 1417-1424 (1982), employing either radiolabelled 5-hydroxytryptamine or β-phenylethylamine as substrates for monoamine oxidase-A (MAO-A) or monoamine oxidase-B (MAO-B) respectively. Various concentrations of the compounds of interest were incubated in appropriately diluted homogenates of rat brain in a 0.2 M potassium phosphate buffer. After a 15 minute preincubation period the reaction was initiated by the addition of substrate. Incubations proceded at 37° C. for 10 minutes. Incubation was terminated by the addition of acid and the radiolabelled products (5-hydroxyindoleacetic acid, 5-hydroxyindoleacetaldehyde or phenylacetic acid, phenylacetaldehyde) were extracted and quantified by liquid scintillation counting procedures. Incubations were done in triplicate and incubations including pheneizine a known MAO inhibitor were included as controls and for comparison. The percent inhibition of monoamine oxidase-A or monoamine oxidase-B activity compared to controls containing no experimental material was calculated.

[7] = target: T2, monoamine oxidase-A (Rattus norvegicus, UniProt P21396); experiment: in vitro monoamine oxidase-A inhibiting activity (radiochemical, 5-hydroxytryptamine substrate); format: biochemical; settings: read-out: inhibition of monoamine oxidase A activity
T2 construct: homogenates of rat brain; from tissue; host or cells: rat brain homogenate
T2 sequence (P21396 1-526): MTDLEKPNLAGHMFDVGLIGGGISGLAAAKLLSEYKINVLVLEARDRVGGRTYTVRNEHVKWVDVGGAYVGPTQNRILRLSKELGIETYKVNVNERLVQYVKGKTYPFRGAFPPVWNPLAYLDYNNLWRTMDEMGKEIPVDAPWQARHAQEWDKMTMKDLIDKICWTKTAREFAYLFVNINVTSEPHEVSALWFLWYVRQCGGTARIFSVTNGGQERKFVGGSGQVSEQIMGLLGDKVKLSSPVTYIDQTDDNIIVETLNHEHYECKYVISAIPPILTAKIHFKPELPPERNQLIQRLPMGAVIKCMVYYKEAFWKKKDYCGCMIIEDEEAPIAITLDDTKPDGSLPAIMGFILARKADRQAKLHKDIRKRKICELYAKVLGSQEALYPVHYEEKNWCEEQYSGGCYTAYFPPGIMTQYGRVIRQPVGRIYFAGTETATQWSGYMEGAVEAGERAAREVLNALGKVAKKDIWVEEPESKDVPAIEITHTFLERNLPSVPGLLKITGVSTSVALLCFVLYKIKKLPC
Procedure: as §2, §3

[8] = test system: rats; experiment: Morris water maze, learning and memory, scopolamine induced amnesia; format: in vivo, rat; settings: for mean latency: scopolamine 2 mg/kg, all scopolamine treated animals; for memory effect of scopolamine treatment: 2 mg/kg
Description: First, we studied the effects of HT1001 on Learning and Memory. […] As HT1001 is a mixture of ginsenosides, it may not have the same properties as pure Rb1. […] Rats are required to learn the location of a hidden platform in a swimming pool. […] The effects of HT1001 on memory can also be examined in scopolamine induced amnesia. If HT1001 enhances memory it should protect against memory loss in scopolamine treated animals.
The Morris water maze task was based on methods previously described (Pitsikas et al, Pharmacol. Biochem. Behav. 47: 95-99 (1994); Smith et al, Psychopharmacol. 114: 651-656 (1994)). The apparatatus consisted of a circular pool (1.7 m diameter, 35 cm deep) which contained water (30° C.) made cloudy by the presence of powdered milk. A moveable platform (10 cm×11.5 cm and 20 cm tall) was placed in the pool such that it was submerged by 3 cm and could not be seen. Each trial involved placing the rat in the pool in one of the four equally spaced quadrants in which the pool was divided. Visual cues consisting of large posters were placed on the walls of the room in which the experiment was conducted, and the experimenters maintained established positions throughout each experiment. During the learning period, animals were allowed to swim freely until they found the escape platform. […] During the initial learning period, all rats were tested sequentially and were given 4 trials per day during which the escape platform was located in a fixed position in the center of the pool. During the scopolamine trials rats were tested sequentially three times on cach day with the three trials being performed between 30 and 45 minutes following scopolamine or saline injection, The latency to reach the platform was recorded.
Experimental Design for Learning and Memory Testing
The specific aim of the experiment was to test if HT1001 affected the acquisition, retention and/or recall of a new task in the presence of scopolamine-induced amnesia. Rats were initially divided into two groups and fed either water (0.5 ml) or HT1001 (200 mg/kg/day in 0.5 ml water by gavage) for the duration of the experiment. Eight days after the initiation of water or HT1001 administration, rats were given the task of learning the position of a platform concealed at the center of the Morris water maze. The rats were placed in the pool 4 times per day for 5 days and the time required to find the platform was recorded (maximum duration 300 seconds). Latency became shorter as the rats learned the task. On day 14, the two groups of rats were further subdivided into four groups. […] In each instance the time to locate the platform (latency) was recorded. […]

[9] = test system: PC12 cells; experiment: neurite outgrowth in PC12 cells; format: cell-based; settings: seven days after treatment
Procedure: A study of the neurotrophic effects of HT1001 and some pure ginsenosides was conducted. A new mechanism of action for HT1001 was shown, which is the stimulation of neurite outgrowth in a PC12 cell line. […] The beneficial effects (prevention/treatment) of HT-1001 may apply to degenerative diseases such as senile dementia, Parkinson's disease, Alzheimer's disease, multi-infarct dementia, etc. Alzheimer's disease (AD) is associated with degeneration of cholinergic nerve tracts including projections from the basal forebrain to the cortex and hippocampus. The PC12 (pheochromocytoma) cell line is one of the models for the study of the development of these nerve tracts. The cell line is phenotypically a chromaffin cell line, but can be induced to express adrenergic and cholinergic markers as well. This model has the advantages that (1) it is an immortalized cell line, (2) it is sensitive to, but not dependent upon, NGF for survival, and (3) it shares many properties in common with the central cholinergic neurons of the basal forebrain. It has been noted that PC12 cells are not sensitive to all of the trophic factors that central cholinergic neurons respond to, whereas central cholinergic neurons respond to all trophic factors that PC12 cells respond to. […] The cellular responses to Nerve Growth Factor (NGF) and samples were determined by counting the number of cells containing processes in PC12 cells. […] The cells and neurites were counted as follows: The cells with circular or global shape and no neurite outgrowth were scored as 0 (S0). […] Cells with more than two small neurites on the cell bodies were scored as S2. Cells with one or two neurites with a length of at least two times diameter as their body were scored as S3. Cells with more than two long neurites were scored as S4. The neurite index was calculated as below: Neurite index (In)=total neurite Score (ΣS)/total cell number (.[…] is the cell number of every cell field. The test samples included: […]

In the case of C[N+]1(C)CCOC(O)(c2ccc(-c3ccc(C4(O)C[N+](C)(C)CCO4)cc3)cc2)C1 (stereo not drawn) [HC3], the “choline uptake (literature)” value [1] is listed as “inhibit choline uptake” and the “choline uptake by rat brain synaptosomes (FIG. 28, in words)” value [2] is listed as “inhibits choline uptake”.

In the case of CC(N)Cc1ccccc1 (stereo not drawn) [amphetamine], the “inhibition of 5-hydroxytryptamine uptake” value [3] is reported as 94%, the “inhibition of dopamine uptake” value [4] is reported as 92.4% and the “inhibition of noradrenaline uptake” value [5] is reported as 83%.

NNCCc1ccccc1 [phenylzine] gave an inhibition at 100 µM [6] of 93% and an inhibition at 100 µM [7] of 97.5%.

For CN1[C@@H]2C[C@@H](OC(=O)[C@H](CO)c3ccccc3)C[C@H]1[C@@H]1O[C@@H]12 [scopolamine], the mean latency ([8]; day 14, third trial) was 39.5 ± 8.2 s, the “memory effect of scopolamine treatment” value ([8]; day 15) was “produces a memory deficit” and the mean latency ([8]; day 16, third trial) was 18.4 ± 2.9 s. For the same compound, the “memory effect of scopolamine treatment” value ([8]; day 17) was “produces a memory deficit”.

In the case of Nerve Growth Factor [NGF], the “neurite outgrowth (FIG. 29)” value [9] is reported as “increased neurite outgrowth in PC12 cells in a dose-dependent manner”.
